These results are taken from patent US20080181877A1, “Method For Monitoring the Effect of Compounds on Foxc2 Expression” (LEANGENE AB, C/O CIT Ekonomiservice AB, priority 2006, published 2008).

Assay [1] relates to Foxc2 expression. Put plainly: High through-put screening: beta-gal activity (Beta-glo kit) in Foxc2nLacZ MEFs differentiated into adipocytes. The assay is classed as cell-based, mouse. As to the method:
Primary MEFs from both wild type and Foxc2nLacZ knock-in mice were maintained in DMEM supplied with 10% FBS and antibiotics. For differentiation into adipocytes the MEFs were grown until confluency and then stimulated (Day 0) with a differentiation media (DMEM, 10% FBS, antibiotics, 1 uM dexamethasone, 0.5 mM isobutyl-methyl-xanthine, 10 ug/mL insulin, 20 ng/ml FGF (all from Sigma), and 1 uM rosiglitazone (Alexis)). New differentiation media was added at day 3. At day 5 the differentiation media was removed and the cells were cultured in a media containing DMEM, 10% FBS, antibiotics, 10 ug/mL insulin, 1 uM rosiglitazone, and 20 ng/ml FGF. This media was changed every second day. From day 10 the cells were kept DMEM supplied with 10% FBS and antibiotics for 24 hours as a wash out period before initiating the experiments.
Foxc2nLacZ MEFs were plated onto gelatine coated 96 well plates. Differentiation was initialized after confluence according to protocol. […] After a wash out period for 24 hours the cells were subjected to different compounds for the indicated time points and subsequently induction of β-gal enzyme activity was measured using the Beta-glo kit (Promega) and a luminometric plate reader. Confluent cells differentiated into adipocytes were detected by increased X-gal staining (FIG. 5a-d), Foxc2nLacZ protein levels increased transiently during the differentiation process. […]

The test system of assay [2] is Foxc2 expression. Put plainly: Monitoring Foxc2 expression in MEFs by X-gal staining. The assay is classed as cell-based, mouse. The following applies: acute treatment; MEFs from heterozygous Foxc2nLacZ E13.5 embryos. How it is done: FIG. 4 specifies the expression of Foxc2 during adipocyte differentiation of mouse embryonic fibroblasts (MEFs), which were isolated from Foxc2nLacZ±E13.5 embryos as well as wt littermates as control. The MEFs were treated with adipocyte differentiation mix (0.5 mM IBMX, 0.25 μM Dex and 10 μg/mL insulin) and X-gal stained at different time points after start of differentiation. Expression of Foxc2 increases during the course of adipocyte differentiation as judge by increasing β-galactosidase activity.
MEFs were isolated from E13.5 embryos from Foxc2nLacZ±heterozygous intercrosses and genotyped by PCR on DNA from the tail. The head, limbs and viscera were removed from embryos and the remains were minced with a razor blade and incubated in 0.25% trypsin, 0.1% EDTA for 1 h at 37° C. The cell suspension was plated in DMEM containing 10% fetal calf serum and antibiotics (100 units of penicillin and 100 μg/mL streptomycin). Once the cultures reached confluency, 1×10^6 cells were plated on 10-cm tissue culture plates (Falcon) and considered passage 0.
A cell based high-throughput screening system has been established by isolation of MEFs from heterozygous Foxc2nLacZ±E13.5 embryos as well as from wt embryos as a control.

Consider `CCCCCCCCCCCCCC(=O)O[C@@H]1[C@@H](C)[C@@]2(O)[C@@H](C=C(CO)C[C@]3(O)C(=O)C(C)=C[C@@H]23)[C@@H]2C(C)(C)[C@]12OC(C)=O` [TPA, 12-O-tetradecanoylphorbol-13-acetate], for which, in the assay on Foxc2 expression [1] (Foxc2nLacZ MEFs differentiated into adipocytes, 96 well plates, 50 μg per well at 0 h, acute treatment, Beta-glo kit), the beta-gal activity result is “increase in beta-gal activity”. The “levels of reporter gene over time” value in the assay with Foxc2 expression [1] (single dose, gene construct with in frame fusion of Foxc2 with a reporter gene) was “moderate increasing of the levels of reporter gene remaining for long periods at similar levels”. Turning to TNFα, the “Foxc2nLacZ protein levels (X-gal staining)” value with Foxc2 expression [2] is “levels could be induced”. As to “insulin: Insulin, known to be an inducer of Foxc2, may be utilized as a control”, in the assay on Foxc2 expression [2], the “Foxc2nLacZ protein levels (X-gal staining)” value is recorded as “levels could be induced”.
